Tested on: skin
Experiment: Affymetrix microarray of skin, DBP-4 hr and analogs vs. untreated; gene selection by log-2 fold change, Wilcoxon, Kendall tau (Tables 8, 9)
Type: in vivo, mouse
Details: for Kendall: Kendall tau coefficient
[1] = DBP-4 hr vs. untreated, rank-sum p-value
[2] = Kendall tau, expression vs. output

CCCCOC(=O)c1ccccc1C(=O)OCCCC [DBP, dibutylphthalate]
No: Il1rl1 NM_001025602_at Wilcoxon [1] | Inpp5a NM_001127363_at Wilcoxon [1] | Inpp5d NM_001110192_at Wilcoxon [1] | Inpp5d NM_001110193_at Wilcoxon [1] | Klhdc5 NM_001081237_at Wilcoxon [1] | Mfhas1 NM_001081279_at Wilcoxon [1] | Mfsd4 NM_001114662_at Wilcoxon [1] | Mrpl44 NM_001081210_at Wilcoxon [1] | Ncbp1 NM_001033201_at Wilcoxon [1] | Nolc1 NM_001039351_at Wilcoxon [1] | Nolc1 NM_001039352_at Wilcoxon [1] | Nolc1 NM_001039353_at Wilcoxon [1] | Ogfrl1 NM_001081079_at Wilcoxon [1] | Oxr1 NM_001130163_at Wilcoxon [1] | Oxr1 NM_001130164_at Wilcoxon [1] | Oxr1 NM_001130165_at Wilcoxon [1] | Oxr1 NM_001130166_at Wilcoxon [1] | Pigyl NM_001082532_at Wilcoxon [1] | Pparg NM_001127330_at Wilcoxon [1] | Ppih NM_001110129_at Wilcoxon [1] | Rffl NM_001007465_at Wilcoxon [1] | Slc39a14 NM_001135151_at Wilcoxon [1] | Tnfrsf9 NM_001077508_at Wilcoxon [1] | Tnfrsf9 NM_001077509_at Wilcoxon [1] | Trp63 NM_001127259_at Wilcoxon [1] | Trp63 NM_001127260_at Wilcoxon [1] | Trp63 NM_001127262_at Wilcoxon [1] | Trp63 NM_001127264_at Wilcoxon [1] | Wbp1 NM_001083922_at Wilcoxon [1] | Wbp1 NM_001083923_at Wilcoxon [1] | Zfp68 NM_001044747_at Wilcoxon [1] | Zfp187 NM_001013786_at Wilcoxon [1] | Zfp518b NM_001081144_at Wilcoxon [1] | Zfp943 NM_001025373_at Wilcoxon [1] | Kendall (Egr1 NM_007913_at) | Kendall (Ehf NM_007914_at) | Kendall (Ereg NM_007950_at) | Wilcoxon (Fgfbp1 NM_008009_at, DBP-4 hr vs. untreated) | Kendall (Fgfbp1 NM_008009_at) | Kendall (Gch1 NM_008102_at) | Kendall (Gjb2 NM_008125_at) | Kendall (Gpr65 NM_008152_at) | 1110032A04Rik NM_133675_at Kendall [2] | 2610528A11Rik XR_105647_at Kendall [2] | 1500015010Rik NM_024283_at Kendall [2] | 3110079015Rik NM_028473_at Kendall [2] | A2m NM_175628_at Kendall [2] | AY026312 NM_133359_at Kendall [2] | Actn2 NM_033268_at Kendall [2] | Akr1c14 NM_134072_at Kendall [2] | Aox4 NM_023631_at Kendall [2] | Asb5 NM_029569_at Kendall [2] | Ccl8 NM_021443_at Kendall [2] | Ccl24 NM_019577_at Kendall [2] | Cd209d NM_130904_at Kendall [2] | Ckmt2 NM_198415_at Kendall [2] | Cldn8 NM_018778_at Kendall [2] | Clec4n NM_020001_at Kendall [2] | Cmya5 NM_023821_at Kendall [2] | Comp NM_016685_at Kendall [2] | Corin NM_016869_at Kendall [2] | Crispld1 NM_031402_at Kendall [2] | Cxcl10 NM_021274_at Kendall [2] | Cxcr6 NM_030712_at Kendall [2] | Dbp NM_016974_at Kendall [2] | Ear5 NM_019398_at Kendall [2] | Gm10228 XM_001474297_at Kendall [2] | Gm10228 XM_003086004_at Kendall [2] | Gm10229 XM_003086003_at Kendall [2] | Gsdmc NM_031378_at Kendall [2] | H19 NR_001592_at Kendall [2] | Krt33a NM_027983_at Kendall [2] | Krt34 NM_027563_at Kendall [2] | Krtap1-5 NM_027157_at Kendall [2] | Krtap3-1 NM_023511_at Kendall [2] | Krtap3-3 NM_025524_at Kendall [2] | Krtap4-2 NM_026807_at Kendall [2] | Krtap5-2 NM_027844_at Kendall [2] | Krtap9-3 NM_029351_at Kendall [2] | Krtap13-1 NM_183189_at Kendall [2] | Krtap16-1 NM_130870_at Kendall [2] | Krtap16-5 NM_130857_at Kendall [2] | Krtap16-7 NM_028621_at Kendall [2] | Krtap16-8 NM_130856_at Kendall [2] | Krtap16-9 NM_130876_at Kendall [2] | Krtap16-10 NM_183296_at Kendall [2] | Krtap28-13 XM_896507_at Kendall [2] | Krtap28-13 XM_919110_at Kendall [2] | LOC100503254 XM_003085741_at Kendall [2] | Lmod2 NM_053098_at Kendall [2] | Lyz2 NM_017372_at Kendall [2] | Mia1 NM_019394_at Kendall [2] | Ms4a6d NM_026835_at Kendall [2] | Mylpf NM_016754_at Kendall [2] | Myoz2 NM_021503_at Kendall [2] | Nrap NM_198059_at Kendall [2] | Nusap1 NM_133851_at Kendall [2] | Olr1 NM_138648_at Kendall [2]
Yes: Gm10229 XM_003086003_at Wilcoxon [1] | Gsdmc NM_031378_at Wilcoxon [1] | H19 NR_001592_at Wilcoxon [1] | Krt33a NM_027983_at Wilcoxon [1] | Krt34 NM_027563_at Wilcoxon [1] | Krtap1-5 NM_027157_at Wilcoxon [1] | Krtap3-1 NM_023511_at Wilcoxon [1] | Krtap3-3 NM_025524_at Wilcoxon [1] | Krtap4-2 NM_026807_at Wilcoxon [1] | Krtap5-2 NM_027844_at Wilcoxon [1] | Krtap9-3 NM_029351_at Wilcoxon [1] | Krtap13-1 NM_183189_at Wilcoxon [1] | Krtap16-1 NM_130870_at Wilcoxon [1] | Krtap16-5 NM_130857_at Wilcoxon [1] | Krtap16-7 NM_028621_at Wilcoxon [1] | Krtap16-8 NM_130856_at Wilcoxon [1] | Krtap16-9 NM_130876_at Wilcoxon [1] | Krtap16-10 NM_183296_at Wilcoxon [1] | Krtap28-13 XM_896507_at Wilcoxon [1] | Krtap28-13 XM_919110_at Wilcoxon [1] | LOC100503254 XM_003085741_at Wilcoxon [1] | Lmod2 NM_053098_at Wilcoxon [1] | Lyz2 NM_017372_at Wilcoxon [1] | Mia1 NM_019394_at Wilcoxon [1] | Ms4a6d NM_026835_at Wilcoxon [1] | Mylpf NM_016754_at Wilcoxon [1] | Myoz2 NM_021503_at Wilcoxon [1] | Nrap NM_198059_at Wilcoxon [1] | Nusap1 NM_133851_at Wilcoxon [1] | Olr1 NM_138648_at Wilcoxon [1] | Pgam2 NM_018870_at Wilcoxon [1] | Prg4 NM_021400_at Wilcoxon [1] | Retnla NM_020509_at Wilcoxon [1] | Rn18s NR_003278_at Wilcoxon [1] | Rpl3l NM_025425_at Wilcoxon [1] | Sln NM_025540_at Wilcoxon [1] | Smpx NM_025357_at Wilcoxon [1] | Tnni1 NM_021467_at Wilcoxon [1] | Trdn NM_029726_at Wilcoxon [1] | Trf NM_133977_at Wilcoxon [1] | Ttn NM_028004_at Wilcoxon [1] | Wfdc2 NM_026323_at Wilcoxon [1] | Wilcoxon (Egr1 NM_007913_at, DBP-4 hr vs. untreated) | Wilcoxon (Ehf NM_007914_at, DBP-4 hr vs. untreated) | Wilcoxon (Ereg NM_007950_at, DBP-4 hr vs. untreated) | Wilcoxon (Gch1 NM_008102_at, DBP-4 hr vs. untreated) | Wilcoxon (Gjb2 NM_008125_at, DBP-4 hr vs. untreated) | Wilcoxon (Gpr65 NM_008152_at, DBP-4 hr vs. untreated) | 2510002D24Rik NM_001033164_at Kendall [2] | 2510009E07Rik NM_001001881_at Kendall [2] | Aldh7a1 NM_001127338_at Kendall [2] | Atp2a2 NM_001110140_at Kendall [2] | Atp13a3 NM_001128094_at Kendall [2] | Atp13a3 NM_001128096_at Kendall [2] | Bcr NM_001081412_at Kendall [2] | Camk2g NM_001039138_at Kendall [2] | Camk2g NM_001039139_at Kendall [2] | Cyth1 NM_001112699_at Kendall [2] | Cyth1 NM_001112700_at Kendall [2] | Deptor NM_001037937_at Kendall [2] | Dlgap4 NM_001042487_at Kendall [2] | Dlgap4 NM_001042488_at Kendall [2] | Fam134b NM_001034851_at Kendall [2] | Gcdh NM_001044744_at Kendall [2] | Il1rl1 NM_001025602_at Kendall [2] | Inpp5a NM_001127363_at Kendall [2] | Inpp5d NM_001110192_at Kendall [2] | Inpp5d NM_001110193_at Kendall [2] | Klhdc5 NM_001081237_at Kendall [2] | Mfhas1 NM_001081279_at Kendall [2] | Mfsd4 NM_001114662_at Kendall [2] | Mrpl44 NM_001081210_at Kendall [2] | Ncbp1 NM_001033201_at Kendall [2] | Nolc1 NM_001039351_at Kendall [2] | Nolc1 NM_001039352_at Kendall [2] | Nolc1 NM_001039353_at Kendall [2] | Ogfrl1 NM_001081079_at Kendall [2] | Oxr1 NM_001130163_at Kendall [2] | Oxr1 NM_001130164_at Kendall [2] | Oxr1 NM_001130165_at Kendall [2]
